Values of other authors as cited in patent US20190240144A1, “EFFERVESCENT DEFERIPRONE TABLET” (priority 2016, published 2019).

Conditions: in vivo

CC(=O)N(O)CCCCCNC(=O)CCC(=O)N(O)CCCCCNC(=O)CCC(=O)N(O)CCCCCN [deferoxamine]
half-life (t1/2): 5-10 minus
